Test results reported in PubChem BioAssay (NCI).
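Test compounds were applied to cells in 96-well plates for 48 hours at 5 doses. GI50 marks 50% less growth. At the TGI there is no net growth.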

Experiments:
Assay in all cases: inhibition of tumour cell growth, NCI panel, 48 h
[1] = system: LOX IMVI melanoma
[2] = system: SF-295 CNS
[3] = system: HCC-2998 colon
[4] = system: HL-60(TB) leukemia
[5] = system: MCF7 breast
[6] = system: PC-3 prostate
[7] = system: MOLT-4 leukemia
[8] = system: SK-OV-3 ovarian
[9] = system: SF-539 CNS
[10] = system: COLO 205 colon

Row | Structure (SMILES) | GI50 [1] [µM] | TGI [1] [µM] | GI50 [2] [µM] | TGI [2] [µM] | GI50 [3] [µM] | TGI [3] [µM] | GI50 [4] [µM] | TGI [4] [µM] | GI50 [5] [µM] | TGI [5] [µM] | GI50 [6] [µM] | TGI [6] [µM] | GI50 [7] [µM] | TGI [7] [µM] | GI50 [8] [µM] | TGI [8] [µM] | GI50 [9] [µM] | TGI [9] [µM] | GI50 [10] [µM] | TGI [10] [µM]
1 | COC(=O)COc1ccc(/C=C2\N=C(c3ccccc3)N(c3cc(C(F)(F)F)ccc3Cl)C2=O)cc1 | 21.8 | 53.3 | > 100 | > 100 | 64 | > 100 | 27.3 | 63.4 | 59.8 | > 100 | 44.8 | > 100 | 28.6 | 69.1 | > 100 | > 100 | 36 | > 100 | 54.4 | > 100
2 | NCCCC(=O)Nc1ccncc1 | > 100 | > 100 | > 100 | > 100 | > 100 | > 100 | > 100 | > 100 | > 100 | > 100 | > 100 | > 100 | > 100 | > 100 | > 100 | > 100 | > 100 | > 100 | > 100 | > 100
3 | C/C=C(\C)C(=O)N[C@H]1[C@@H](OC(C)=O)C[C@]2(C)C3CC[C@@]4(C)C(CC[C@@H]4C(C)N(C)C)C3CCC2[C@H]1O (some centres undefined) | 1.78 | 4.02 | 3.44 | 14.9 | 7.15 | 21.7 | 4.53 | 13.6 | 3.71 | 18.1 | 2.88 | 24.2 | 6.19 | 33.8 | 7.95 | 22.5 | 1.87 | 4.97 | 2.15 | 5.91
4 | Fc1ccc(Oc2nccc(-c3c(-c4ccc(F)cc4)ncn3C3CCNCC3)n2)cc1 | > 25 | > 25 | > 25 | > 25 | > 25 | > 25 | > 25 | > 25 | > 25 | > 25 | > 25 | > 25 | > 25 | > 25 | > 23.9 | > 25 | > 25 | > 25 | > 25 | > 25
5 | Cn1ccc2c(NCCN)c3c(c(NCCN)c21)C(=O)c1ccccc1C3=O | 0.651 | 2 | 0.968 | 5.77 | 1.64 | 3.99 | 2.91 | 64.1 | 0.442 | 7.22 | 0.494 | 3.18 | < 0.0429 |  | 20.3 | 42.4 | 0.291 | 1.55 | 24.4 | 68.4
6 | CCCCCNC(=O)[C@@H]1CCCN2C(=O)CC[C@H](NC(=O)[C@H](Cc3ccc(OP(=O)(O)O)cc3)NC(C)=O)C(=O)N12 | > 25 | > 25 | > 25 | > 25 | > 25 | > 25 | > 25 | > 25 | > 25 | > 25 | > 25 | > 25 | > 25 | > 25 | > 25 | > 25 | > 25 | > 25 | > 25 | > 25
